Test results taken from BindingDB's records for PubMed 36270088 (n/a, 2022).

Assay: Antagonist activity against CXCR4 in human SUP-T1 cells assessed as inhibition of SDF-1alpha-induced cell migration preincubated with cells for 30 mins followed by incubation with SDF-1alpha for 3 hrs by CellTiter-96 reagent based transwell assay

SMILES	IC50 [µM]
CC(C)C[C@@H](N)C(=O)NCC(=O)N[C@H](C)C(=O)N[C@H](CO)C(=O)N[C@H](Cc1c[nH]c2ccccc12)C(=O)N[C@H](Cc1cnc[nH]1)C(=O)N[C@H](CCCNC(=N)N)C(=O)N1CCC[C@@H]1C(=O)N[C@H](CC(=O)O)C(=O)N[C@H](CCCCN)C(=O)N[C@H](CCCCN)C(=O)N[C@H](CCCNC(=N)N)C(=O)N(CCCCCC(=O)O)[C@@H](CCCCN)C(=O)N[C@@H](CCCNC(=N)N)C(=O)N[C@@H](CCCCN)C(=O)N[C@@H](CCC(N)=O)C(=O)N[C@@H](CCCNC(=N)N)C(=O)NCC(=O)N1CCC[C@H]1C(=O)NCC(=O)N[C@@H](CCCNC(=N)N)C(=O)N[C@@H](C)C(=O)N[C@@H](Cc1ccccc1)C(N)=O	6.08
CC(C)C[C@@H](N)C(=O)NCC(=O)N[C@H](C)C(=O)N[C@H](CO)C(=O)N[C@H](Cc1c[nH]c2ccccc12)C(=O)N[C@H](Cc1cnc[nH]1)C(=O)N[C@H](CCCNC(=N)N)C(=O)N1CCC[C@@H]1C(=O)N[C@H](CC(=O)O)C(=O)N[C@H](CCCCN)C(=O)N[C@H](CCCCN)C(=O)N[C@H](CCCNC(=N)N)C(=O)N(CCCCCC(=O)O)[C@H](CCCCN)C(=O)N[C@H](CCCNC(=N)N)C(=O)N[C@H](CCCCN)C(=O)N[C@H](CCC(N)=O)C(=O)N[C@H](CCCNC(=N)N)C(=O)NCC(=O)N1CCC[C@@H]1C(=O)NCC(=O)N[C@H](CCCNC(=N)N)C(=O)N[C@H](C)C(=O)N[C@H](Cc1ccccc1)C(N)=O	0.87
